Assay [1] has as its target T1, ΔF508-CFTR (Homo sapiens, UniProt P13569, DEL508-508).
T1 construct: host or cells: CFBE41o-, doxycycline-inducible
The experiment in a line: CFTR cell surface levels using HRP-tagged ΔF508-CFTR expressing CFBE cells, in the presence of a co-corrector. The format is cell-based. A digest of the protocol: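 Cells were seeded with 0.5 μg/mL doxycycline and held 68 h at 37 °C. Test compounds plus 3 μM co-corrector (final 0.1% DMSO) were then added for 20 h at 33 °C. Washed cells received HRP substrate, and luminescence was normalized between DMSO and 3 μM co-corrector controls.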

For assay [2], the target named is T1, ΔF508-CFTR. The experiment in a line: CFTR cell surface levels using HRP-tagged ΔF508-CFTR expressing CFBE cells, intrinsic corrector capacity. The format is cell-based. A digest of the protocol:
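Here the cells express ΔF508-CFTR with horseradish peroxidase inserted in extracellular loop 4, so only rescued channel at the surface gives luminescent signal. Compounds act on their own, 20 h at the reduced temperature of 33 °C; values are percent activity relative to DMSO and a 3 μM corrector.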

[3] abbreviates: HRP-tagged ΔF508-CFTR expressing CFBE cells, in the presence of 3 μM co-corrector.
The mark [4] stands for this setting: HRP-tagged ΔF508-CFTR expressing CFBE cells, in the presence of 3 μM co-corrector, read-out: EC50.
[5] abbreviates: HRP-tagged ΔF508-CFTR expressing CFBE cells, intrinsic corrector capacity (no co-corrector), 33° C., 20 hours.
Setting [6] is: HRP-tagged ΔF508-CFTR expressing CFBE cells, intrinsic corrector capacity (no co-corrector), 33° C., 20 hours, read-out: EC50.
[7] abbreviates: HRP-tagged ΔF508-CFTR CFBE41o- cells, compounds alone (intrinsic corrector capacity), 20 hours at 33° C., positive control 3 μM corrector.
Where [8] appears, read: HRP-tagged ΔF508-CFTR CFBE41o- cells, compounds alone (intrinsic corrector capacity), 20 hours at 33° C., read-out: EC50.

The results in this text go back to patent publication US9796711B2, “Substituted pyrazolo[3,4-b]pyridin-6-carboxylic acids and method of use” (AbbVie S.àr.l., priority 2015, dated 2017).

T1 sequence (P13569 with tags, fused parts or gaps DEL508-508): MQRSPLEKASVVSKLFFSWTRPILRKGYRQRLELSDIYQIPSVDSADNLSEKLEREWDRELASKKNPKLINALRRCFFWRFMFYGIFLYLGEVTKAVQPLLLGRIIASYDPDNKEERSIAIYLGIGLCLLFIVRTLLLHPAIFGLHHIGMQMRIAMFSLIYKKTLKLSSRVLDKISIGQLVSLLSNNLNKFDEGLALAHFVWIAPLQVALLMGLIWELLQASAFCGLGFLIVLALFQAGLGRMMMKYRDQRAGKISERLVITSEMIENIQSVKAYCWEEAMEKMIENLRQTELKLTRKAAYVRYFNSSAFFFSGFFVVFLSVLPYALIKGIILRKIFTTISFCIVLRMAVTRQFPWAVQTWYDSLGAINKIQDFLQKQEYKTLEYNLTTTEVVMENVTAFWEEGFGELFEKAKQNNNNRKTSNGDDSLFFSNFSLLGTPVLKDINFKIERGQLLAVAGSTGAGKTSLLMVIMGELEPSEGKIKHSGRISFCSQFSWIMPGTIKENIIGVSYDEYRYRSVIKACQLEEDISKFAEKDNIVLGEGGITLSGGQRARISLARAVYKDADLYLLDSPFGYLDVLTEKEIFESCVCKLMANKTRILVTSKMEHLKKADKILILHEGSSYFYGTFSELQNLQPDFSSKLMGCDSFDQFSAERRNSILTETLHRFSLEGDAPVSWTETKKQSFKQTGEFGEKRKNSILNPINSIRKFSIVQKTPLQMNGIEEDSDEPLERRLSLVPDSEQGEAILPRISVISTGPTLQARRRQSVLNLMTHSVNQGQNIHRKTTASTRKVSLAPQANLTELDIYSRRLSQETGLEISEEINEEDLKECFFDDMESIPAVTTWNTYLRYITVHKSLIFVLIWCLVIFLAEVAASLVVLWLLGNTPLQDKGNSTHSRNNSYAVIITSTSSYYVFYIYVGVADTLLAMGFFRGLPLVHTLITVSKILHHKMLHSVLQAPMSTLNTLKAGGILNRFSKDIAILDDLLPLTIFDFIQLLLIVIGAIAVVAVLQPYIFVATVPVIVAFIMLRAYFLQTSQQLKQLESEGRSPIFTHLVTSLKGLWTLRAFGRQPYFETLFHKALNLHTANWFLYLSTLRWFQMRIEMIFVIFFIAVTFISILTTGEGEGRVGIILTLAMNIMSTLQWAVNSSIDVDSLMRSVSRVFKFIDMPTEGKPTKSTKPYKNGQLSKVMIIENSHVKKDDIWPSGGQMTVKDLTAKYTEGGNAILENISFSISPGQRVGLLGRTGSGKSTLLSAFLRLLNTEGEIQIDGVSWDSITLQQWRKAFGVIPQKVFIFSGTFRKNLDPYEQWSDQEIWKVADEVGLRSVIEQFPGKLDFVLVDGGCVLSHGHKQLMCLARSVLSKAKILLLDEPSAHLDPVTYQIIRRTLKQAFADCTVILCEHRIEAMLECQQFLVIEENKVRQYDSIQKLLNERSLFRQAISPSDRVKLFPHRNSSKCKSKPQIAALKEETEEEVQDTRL

As usually defined, the EC50 is the concentration at which the effect is half-maximal. In the case of `O=C(O)c1cc(N2CCC(N3CCC(O)CC3)CC2)c2c(C3CCC3)nn(-c3ccc(F)cc3)c2n1` [compound 898, 3-cyclobutyl-1-(4-fluorophenyl)-4-(4-hydroxy[1,4′-bipiperidin]-1′-yl)-1H-pyrazolo[3,4-b]pyridine-6-carboxylic acid], the “% Activation” value in assay [1] (setting [3]) came out at 393.6%; in assay [2] (setting [5]), 231.6%. Besides, the EC50 was 3330 nM in assay [1] (setting [4]) and 3240 nM in assay [2] (setting [6]).
On to `CO[C@H]1CCC[C@@H](n2nc(C(C)C)c3c(-c4ccc(N5CCOCC5)cc4)cc(C(=O)O)nc32)C1` [compound 205, 1-[(1R,3S)-3-methoxycyclohexyl]-4-[4-(morpholin-4-yl)phenyl]-3-(propan-2-yl)-1H-pyrazolo[3,4-b]pyridine-6-carboxylic acid], for which the “% Activation” value was 261.5% in assay [1] (setting [3]) and 109% in assay [2] (setting [7]). Moreover, the EC50 was found to be 819 nM in assay [1] (setting [4]) and 1110 nM in assay [2] (setting [8]).
As for `O=C(O)c1cc(N2CCC(CCN3CCCC3)CC2)c2c(C3CCC3)nn(-c3ccccc3)c2n1` [compound 574, 3-cyclobutyl-1-phenyl-4-{4-[2-(pyrrolidin-1-yl)ethyl]piperidin-1-yl}-1H-pyrazolo[3,4-b]pyridine-6-carboxylic acid], the results for the “% Activation” value in assay [1] (setting [3]) and in assay [2] (setting [5]) were 469.5% and 294%, respectively. The figures for the EC50 in assay [1] (setting [4]) and in assay [2] (setting [6]) were 190 nM and 479 nM, respectively.
For the compound `CC(C)OC(=O)N1CC[C@@H]2CN(c3cc(C(=O)O)nc4c3c(C3CCC3)nn4-c3ccccc3)CC[C@@H]21` (racemic) [compound 610, rac-3-cyclobutyl-1-phenyl-4-[(3aR,7aS)-1-{[(propan-2-yl)oxy]carbonyl}octahydro-5H-pyrrolo[3,2-c]pyridin-5-yl]-1H-pyrazolo[3,4-b]pyridine-6-carboxylic acid], the “% Activation” value in assay [1] (setting [3]) is reported as 539.05%; in assay [2] (setting [5]) it was 262.4%. Also, the EC50 was found to be 44.8 nM in assay [1] (setting [4]) and 123 nM in assay [2] (setting [6]).
Consider `COCCN1CCC2(CC1)CCN(c1cc(C(=O)O)nc3c1c(C1CCC1)nn3-c1ccc(F)cc1)CC2` [compound 897, 3-cyclobutyl-1-(4-fluorophenyl)-4-[9-(2-methoxyethyl)-3,9-diazaspiro[5.5]undecan-3-yl]-1H-pyrazolo[3,4-b]pyridine-6-carboxylic acid], for which the “% Activation” value in assay [1] (setting [3]) was found to be 354.93%; in assay [2] (setting [5]) it was 151.25%. Further, the EC50 in assay [1] (setting [4]) came to 186 nM; in assay [2] (setting [6]), 348 nM.
For `O=C(O)c1cc(N2CCC(N3CCN(C4CC4)CC3)CC2)c2c(C3CCC3)nn(-c3ccccc3)c2n1` [compound 738, 3-cyclobutyl-4-[4-(4-cyclopropylpiperazin-1-yl)piperidin-1-yl]-1-phenyl-1H-pyrazolo[3,4-b]pyridine-6-carboxylic acid], in that order: 472.1%, 267.6%, 110 nM and 245 nM.
As to `O=C(O)c1cc(N2CCC(CCN3CCOCC3)CC2)c2c(C3CCC3)nn(-c3ccc(F)cc3)c2n1` [compound 810, 3-cyclobutyl-1-(4-fluorophenyl)-4-{4-[2-(morpholin-4-yl)ethyl]piperidin-1-yl}-1H-pyrazolo[3,4-b]pyridine-6-carboxylic acid], the results for the “% Activation” value in assay [1] (setting [3]) and in assay [2] (setting [5]) were 468.7% and 277.6%, respectively. Also, the EC50 in assay [1] (setting [4]) came to 88.4 nM; in assay [2] (setting [6]), 204 nM.
On to `CC(C)c1nn(-c2ccc(F)cc2)c2nc(C(=O)O)cc(N3CCC(CN4CCCCC4)CC3)c12` [compound 790, 1-(4-fluorophenyl)-4-{4-[(piperidin-1-yl)methyl]piperidin-1-yl}-3-(propan-2-yl)-1H-pyrazolo[3,4-b]pyridine-6-carboxylic acid], for which the “% Activation” value is listed as 419.1% in assay [1] (setting [3]) and 193.7% in assay [2] (setting [5]). Besides, the EC50 in assay [1] (setting [4]) was found to be 181 nM; in assay [2] (setting [6]) it was 294 nM.
As to `CC(C)N1CCC2(CCN(c3cc(C(=O)O)nc4c3c(C3CCC3)nn4-c3ccc(F)cc3)CC2)CC1` [compound 890, 3-cyclobutyl-1-(4-fluorophenyl)-4-[9-(propan-2-yl)-3,9-diazaspiro[5.5]undecan-3-yl]-1H-pyrazolo[3,4-b]pyridine-6-carboxylic acid], the “% Activation” value in assay [1] (setting [3]) worked out at 406.67%; in assay [2] (setting [5]), 179%. The EC50 came out at 225 nM in assay [1] (setting [4]) and 742 nM in assay [2] (setting [6]).
For `O=C(O)c1cc(N2CCC(N3CCC(F)CC3)CC2)c2c(C3CCC3)nn(-c3ccc(F)cc3)c2n1` [compound 849, 3-cyclobutyl-4-(4-fluoro[1,4′-bipiperidin]-1′-yl)-1-(4-fluorophenyl)-1H-pyrazolo[3,4-b]pyridine-6-carboxylic acid], in that order: 458.6%, 249.1%, 231 nM and 660 nM.
With `CC(C)c1nn(-c2cc(F)cc(F)c2)c2nc(C(=O)O)cc(-c3ccc(N4CCOCC4)cc3)c12` [compound 268, 1-(3,5-difluorophenyl)-4-[4-(morpholin-4-yl)phenyl]-3-(propan-2-yl)-1H-pyrazolo[3,4-b]pyridine-6-carboxylic acid], the entries for the “% Activation” value in assay [1] (setting [3]) and in assay [2] (setting [7]) were 425.68% and 251.82%, respectively. The values for the EC50 in assay [1] (setting [4]) and in assay [2] (setting [8]) were 394 nM and 616 nM, respectively.
On to `COC1CCN(C2CCN(c3cc(C(=O)O)nc4c3c(C3CCC3)nn4-c3ccc(F)cc3)CC2)CC1` [compound 892, 3-cyclobutyl-1-(4-fluorophenyl)-4-(4-methoxy[1,4′-bipiperidin]-1′-yl)-1H-pyrazolo[3,4-b]pyridine-6-carboxylic acid], for which the “% Activation” value in assay [1] (setting [3]) is on record as 428.72%; in assay [2] (setting [5]), 196.44%. In addition, the EC50 was determined as 602 nM in assay [1] (setting [4]) and 603 nM in assay [2] (setting [6]).
As for `N#CC1CCN(c2ccc(-c3cc(C(=O)O)nc4c3c(C3CCC3)nn4C3CCCCC3)cn2)CC1` [compound 220, 4-[6-(4-cyanopiperidin-1-yl)pyridin-3-yl]-3-cyclobutyl-1-cyclohexyl-1H-pyrazolo[3,4-b]pyridine-6-carboxylic acid], the “% Activation” value came out at 470.77% in assay [1] (setting [3]) and 245.37% in assay [2] (setting [7]). The EC50 in assay [1] (setting [4]) was 369 nM; in assay [2] (setting [8]), 786 nM.
For `CC(C)c1nn(-c2cccc(N3CCC3)c2)c2nc(C(=O)O)cc(-c3ccc(N4CCOCC4)cc3)c12` [compound 151, 1-[3-(azetidin-1-yl)phenyl]-4-[4-(morpholin-4-yl)phenyl]-3-(propan-2-yl)-1H-pyrazolo[3,4-b]pyridine-6-carboxylic acid], in that order: 562.6%, 322.03%, 644 nM and 354 nM.
`O=C(O)c1cc(N2CCC(N3CCOCC3)CC2)c2c(C3CCC3)nn(-c3ccccc3)c2n1` [compound 560, 3-cyclobutyl-4-[4-(morpholin-4-yl)piperidin-1-yl]-1-phenyl-1H-pyrazolo[3,4-b]pyridine-6-carboxylic acid]: the values for the EC50 in assay [1] and in assay [2] were 171 nM and 393 nM, respectively. Besides, the “% Activation” value came out at 437.33% in assay [1] (setting [3]) and 265.05% in assay [2] (setting [5]).
For `O=C(O)c1cc(N2CCC3(CC2)CCN(C2CCC2)CC3)c2c(C3CCC3)nn(-c3ccc(F)cc3)c2n1` [compound 894, 3-cyclobutyl-4-(9-cyclobutyl-3,9-diazaspiro[5.5]undecan-3-yl)-1-(4-fluorophenyl)-1H-pyrazolo[3,4-b]pyridine-6-carboxylic acid], the “% Activation” value in assay [1] (setting [3]) worked out at 371.3%; in assay [2] (setting [5]) it was 164%. Also, the results for the EC50 in assay [1] (setting [4]) and in assay [2] (setting [6]) were 218 nM and 304 nM, respectively.
Take `Cc1cccc(-n2nc(C(C)C)c3c(N4CCC(C#N)CC4)cc(C(=O)O)nc32)c1` [compound 191, 4-(4-cyanopiperidin-1-yl)-1-(3-methylphenyl)-3-(propan-2-yl)-1H-pyrazolo[3,4-b]pyridine-6-carboxylic acid]: the entries for the “% Activation” value in assay [1] (setting [3]) and in assay [2] (setting [7]) were 375.1% and 208.12%, respectively. Further, the EC50 turned out to be 481 nM in assay [1] (setting [4]) and 998 nM in assay [2] (setting [8]).
With `O=C(O)c1cc(N2CCC(N3CCN(C4CC4)CC3)CC2)c2c(C3CCC3)nn(-c3ccc(F)cc3)c2n1` [compound 886, 3-cyclobutyl-4-[4-(4-cyclopropylpiperazin-1-yl)piperidin-1-yl]-1-(4-fluorophenyl)-1H-pyrazolo[3,4-b]pyridine-6-carboxylic acid], the “% Activation” value in assay [1] (setting [3]) is 551.77%; in assay [2] (setting [5]), 236.05%. For the same compound, the EC50 was 511 nM in assay [1] (setting [4]) and 467 nM in assay [2] (setting [6]).
`O=C(O)c1cc(N2CCC(N3CCCCC3)CC2)c2c(C3CCC3)nn(-c3ccccc3)c2n1` [compound 576, 4-([1,4′-bipiperidin]-1′-yl)-3-cyclobutyl-1-phenyl-1H-pyrazolo[3,4-b]pyridine-6-carboxylic acid]: the EC50 in assay [1] was found to be 396 nM; in assay [2] it was 496 nM. Further, the “% Activation” value in assay [1] (setting [3]) turned out to be 390.78%; in assay [2] (setting [5]), 175.2%.
